Consider one molecule from patent US20210024628A1, “METHODS FOR MODULATING INNATE LYMPHOID CELL ACTIVITY, ANTIBODY DRUG CONJUGATES AND USES IN THERAPY” (INSERM (INSTITUT NATIONAL DE LA SANTÉ ET DE LA RECHERCHE …, priority 2018, published 2021).

In assay [1] the test system is NK cells. Kind of assay: In vitro splenocyte stimulation: NK cell degranulation (CD107a). To be noted: stimulation with anti-NK1.1 antibodies or PMA and ionomycine, data not shown. The format is cell-based, mice. As for the experimental part: Splenocytes from control and GR^Ncr1-iCre mice were stimulated in vitro in complete culture medium (RPMI 10% FCS, 100 μg/ml penicillin/streptomycin, 2 mM 1-glutamine, 1 mM sodium pyruvate, and 0.01 M Hepes) with: 25 ng/ml IL-12 (eBiosciences), 25 ng/ml IL-15 (Peprotech) and 20 ng/ml IL-18 (MBL) alone or in combination, or with PMA (200 ng/ml, Sigma) and ionomycin (1 μg/ml, Sigma). For NK1.1 stimulation 96 well plates (Immulon 2HB) were coated overnight at 37° C. with 2.5 ul/well anti-NK1.1 Ab (PK136, eBiosciences) or IgG2a isotype control before cell plating. During stimulation, 250 or 500 nM corticosterone (Sigma; dissolved in ethanol) or the same volume of vehicle alone were added to the medium. Cells were stimulated at 37° C. in the presence of Golgi Stop and Golgi Plug from BD Biosciences. After 4 h of stimulation, the cells were washed and stained for FACS analysis. […]
Single-cell suspensions were obtained from the spleen by scratching it through 70 um cell strainer, or from the liver by scratching it through 100 um cell strainer and subsequent lymphocyte isolation on a 37.5%-67.5% Percoll gradient. […] Stained samples were analyzed in a BD LSRII flow cytometer (BD Biosciences). Apoptosis was detected with the FITC Annexin V Apoptosis Detection Kit I from BD Biosciences, according to the manufacturer's protocol.

Assay [2] concerns NK cells. Kind of assay: In vitro splenocyte stimulation with cytokines: PD1 expression (FACS). The assay is classed as cell-based, mice. As for the experimental part: Splenocytes from control and GR^Ncr1-iCre mice were stimulated in vitro in complete culture medium (RPMI 10% FCS, 100 μg/ml penicillin/streptomycin, 2 mM 1-glutamine, 1 mM sodium pyruvate, and 0.01 M Hepes) with: 25 ng/ml IL-12 (eBiosciences), 25 ng/ml IL-15 (Peprotech) and 20 ng/ml IL-18 (MBL) alone or in combination, or with PMA (200 ng/ml, Sigma) and ionomycin (1 μg/ml, Sigma). For NK1.1 stimulation 96 well plates (Immulon 2HB) were coated overnight at 37° C. with 2.5 ul/well anti-NK1.1 Ab (PK136, eBiosciences) or IgG2a isotype control before cell plating. During stimulation, 250 or 500 nM corticosterone (Sigma; dissolved in ethanol) or the same volume of vehicle alone were added to the medium. Cells were stimulated at 37° C. in the presence of Golgi Stop and Golgi Plug from BD Biosciences. After 4 h of stimulation, the cells were washed and stained for FACS analysis. For CD107a staining, 2.5 ul/well of anti-CD107a-FITC antibody (1D4B, BD Biosciences) were added during stimulation.
Single-cell suspensions were obtained from the spleen by scratching it through 70 um cell strainer, or from the liver by scratching it through 100 um cell strainer and subsequent lymphocyte isolation on a 37.5%-67.5% Percoll gradient. For isolation of small intestine lamina propria cells, intestines were cut longitudinally, then transversally in 2-3 cm pieces, thoroughly rinsed with PBS, and shaken for 30 minutes in PBS containing 10% FBS, 15 mM Hepes and 5 mM EDTA to remove intraepithelial and epithelial cells. Intestines were then digested with collagenase VIII (300UI/mL; Sigma) in complete RPMI for 45 minutes at 37° C. under agitation, and lamina propria lymphocytes were isolated on a 40%-100% Percoll gradient. Cells were incubated with the Fc blocking antibody (2.4G2) and with a fixable blue dead-cell stain kit (Invitrogen). Surface molecules were stained with antibodies against: CD45.2 (104), CD3 (145-2C11), CD19 (1D3), NK1.1 (PK136), CD49a (Ha31/8), CD11b (M1/70), MHCII (M5/114.15.2), TCRb (H57-597), PD1 (J43, and Hamster IgG2 isotype control), PDL1 (MIHS) from BD Biosciences; NKp46 (29A1.4), CD49b (DX5), F4/80 (BM8), Ly49H (3D10) from eBioscience; CD11c (N418), PD1 (RMP1-30, and Rat IgG2b isotype control), PDL2 (TY25) and Ly6G (1A8) from Biolegend. For intracellular staining, cells were fixed and permeabilized with an intracellular staining kit (eBioscience), and the following antibodies were used: anti-IFN-(XMG1.2) from Biolegend; anti-granzyme B (GB11), anti-Rort (Q31-378), anti-IL17 (TC11-18H10), anti-Ki67 (B56) from BD Biosciences, anti-IL-22 (JOP eBioscience, coupled to Alexa Fluor 647 with an antibody labeling kit from Life Technologies), anti-GR XP rabbit mAb (D8H2) and rabbit mAb IgG XP (DA1E) from Cell Signaling Technology. Stained samples were analyzed in a BD LSRII flow cytometer (BD Biosciences). Apoptosis was detected with the FITC Annexin V Apoptosis Detection Kit I from BD Biosciences, according to the manufacturer's protocol.

For the molecule `C[C@]12C[C@H](O)[C@H]3[C@@H](CCC4=CC(=O)CC[C@@]43C)[C@@H]1CC[C@@H]2C(=O)CO` [Corticosterone, (11β)-11,21-Dihydroxypregn-4-ene-3,20-dione], the “ability of NK cells to degranulate (measured by their CD107a expression)” value in the assay on NK cells [1] is listed as “did not affect”. For the same molecule, the “PD1 expression on NK cells” value in the assay with NK cells [2] (corticosterone (250 or 500 nM) with the combination IL-15+IL-18, splenocytes, 4 h) is given as “able to induce PD1 expression on NK cells, in a dose-dependent manner”; with NK cells [2] (corticosterone alone, splenocytes, 4 h at 37° C.), “not able to induce PD1 expression”; in the assay on NK cells [2] (corticosterone in the presence of IL-15, splenocytes, 4 h), “not able to induce PD1 expression”; with NK cells [2] (corticosterone with IL-15+IL-18 and addition of IL-12), “abrogate this effect”. In addition, the “PD1 induction on T cells” value in the assay with NK cells [2] (corticosterone in addition to IL-15 and IL-18) is “not observed”. Further, the “PD1 induction on NK cells from GR^Ncr1-iCre mice” value with NK cells [2] (corticosterone in addition to IL-15 and IL-18, GR-deficient NK cells) was “not observed”.
